The text below walks through data of patent US20160159814A1, “GLYCINE TRANSPORTER INHIBITOR” (TAISHO PHARMACEUTICAL CO., LTD., priority 2013, published 2016).

The target of the first experiment is T1, human type 1 glycine transporter (GlyT1) (Homo sapiens, UniProt P48067).
T1 construct: T98G cells (glioma cells) expressing human type 1 glycine transporter (GlyT1) were used; endogenous in cells; host or cells: T98G cells (human glioma cells)
T1 sequence (P48067 1-706): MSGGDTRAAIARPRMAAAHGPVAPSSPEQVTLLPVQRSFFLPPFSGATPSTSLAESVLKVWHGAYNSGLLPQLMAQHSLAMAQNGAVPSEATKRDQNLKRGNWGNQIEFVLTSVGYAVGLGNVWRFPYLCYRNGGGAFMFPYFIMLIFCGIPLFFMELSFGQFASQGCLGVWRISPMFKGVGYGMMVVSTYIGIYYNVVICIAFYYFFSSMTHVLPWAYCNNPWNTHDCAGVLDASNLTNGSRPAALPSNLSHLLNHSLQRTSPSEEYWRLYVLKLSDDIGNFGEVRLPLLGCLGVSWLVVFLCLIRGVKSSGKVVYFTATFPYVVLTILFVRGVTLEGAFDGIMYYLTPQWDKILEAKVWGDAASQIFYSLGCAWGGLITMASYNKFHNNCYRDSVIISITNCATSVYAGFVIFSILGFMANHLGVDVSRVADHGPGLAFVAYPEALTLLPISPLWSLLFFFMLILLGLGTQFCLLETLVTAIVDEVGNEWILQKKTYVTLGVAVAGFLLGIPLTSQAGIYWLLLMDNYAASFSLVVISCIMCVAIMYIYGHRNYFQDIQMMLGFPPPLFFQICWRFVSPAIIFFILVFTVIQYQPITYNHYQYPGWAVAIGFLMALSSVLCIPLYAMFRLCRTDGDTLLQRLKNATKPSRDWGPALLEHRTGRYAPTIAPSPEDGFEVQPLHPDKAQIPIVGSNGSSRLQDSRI
The experiment is described as follows: Glycine uptake inhibition experiment ([3H] glycine uptake in T98G cells expressing GlyT1). Type of experiment: cell-based.
Conditions: not given
Summed up: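 T98G glioma cells expressing human GlyT1 were pretreated 10 min with compound in HEPES buffer pH 7.4 (0.2% BSA), then incubated with compound plus 250 nM final [3H]glycine for 15 min at room temperature. Intracellular radioactivity was counted after NaOH lysis; 10 μM ALX5407 defined non-specific uptake. IC50 came from 10^−9–10^−5 M curves.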
As to `O=C1N(Cc2ccnc(C(F)(F)F)c2)c2cccc(C(O)C(F)F)c2C1(F)F` (single isomer, unassigned) [Compound 191, 4-(2,2-difluoro-1-hydroxyethyl)-3,3-difluoro-1-{[2-(trifluoromethyl)pyridin-4-yl]methyl}-1,3-dihydro-2H-Indol-2-one], 0.029 µM corresponded to half-maximal inhibition (IC50).
`C[C@H](O)c1cccc2c1C(F)(F)C(=O)N2Cc1ccc(-n2ccnn2)nc1` [Compound 197, 3,3-difluoro-4-[(1S)-1-hydroxyethyl]-1-{[6-(1H-1,2,3-triazol-1-yl)pyridin-3-yl]methyl)-1,3-dihydro-2H-indol-2-one] showed an IC50 of 6.7 µM.
`COc1cccnc1CN1C(=O)C(F)(F)c2c([C@H](C)O)cccc21` [Compound 247, 3,3-difluoro-4-[(1S)-1-hydroxyethyl]-1-[(3-methoxypyridin-2-yl)methyl]-1,3-dihydro-2H-indol-2-one]: the IC50 was found to be 0.58 µM.
Still for that read-out and setting: the figure for `C[C@H](O)c1cccc2c1C(F)(F)C(=O)N2Cc1ccc(-n2cncn2)nc1` [Compound 193, 3,3-difluoro-4-[(1S)-1-hydroxyethyl]-1-{[6-(1H-1,2,4-biazol-1-yl)pyridin-3-yl]methyl}-1,3-dihydro-2H-indol-2-one] is 1.4 µM; for `C[C@H](O)c1cccc2c1C(F)(F)C(=O)N2Cc1ccnc(C2CC2)c1` [Compound 175, 1-[(2-cyclopropylpyridin-4-yl)methyl]-3,3-difluoro-4-[(1S)-1-hydroxyethyl]-1,3-dihydro-2H-indol-2-one] it is 0.023 µM; for `C[C@H](O)c1cccc2c1C(F)(F)C(=O)N2Cc1ccc(C(F)(F)F)c(Cl)n1` [Compound 238, 1-{[6-chloro-5-(trifluoromethyl)pyridin-2-yl]methyl}-3,3-difluoro-4-[(1S)-1-hydroxyethyl]-1,3-dihydro-2H-indol-2-one] it is 0.0062 µM.
Same read-out and setting: for `C[C@H](O)c1cccc2c1C(F)(F)C(=O)N2Cc1ccnc(OC(F)F)c1` [Compound 194, 1-{[2-(difluoromethoxy)pyridin-4-yl]methyl}-3,3-difluoro-4-[(1S)-1-hydroxyethyl]-1,3-dihydro-2H-indol-2-one] the value was 0.043 µM.
In turn, `[2H]C([2H])(c1cccc(Cl)n1)N1C(=O)C(F)(F)c2c([C@H](C)O)cccc21` [Compound 205, 1-[(6-chloropyridin-2-yl)(2H2)methyl]-3,3-difluoro-4-[(1S)-1-hydroxyethyl]-1,3-dihydro-2H-indol-2-one] registered an IC50 of 0.0056 µM.
On the same count and under the same terms, for `C[C@H](O)c1cccc2c1C(F)(F)C(=O)N2Cc1ncc(F)cc1Br` [Compound 226, 1-[(3-bromo-5-fluoropyridin-2-yl)methyl]-3,3-difluoro-4-[(1S)-1-hydroxyethyl]-1,3-dihydro-2H-indol-2-one] the value was 0.04 µM; for `C[C@H](O)c1cccc2c1C(F)(F)C(=O)N2Cc1cncc(C2CC2)c1` [Compound 174, 1-[(5-cyclopropylpyridin-3-yl)methyl]-3,3-difluoro-4-[(1S)-1-hydroxyethyl]-1,3-dihydro-2H-indol-2-one], 0.095 µM; for `C[C@H](O)c1cccc2c1C(F)(F)C(=O)N2Cc1cc(C#N)ncc1Cl` [Compound 195, 5-chloro-4-({3,3-difluoro-4-[(1S)-1-hydroxyethyl]-2-oxo-2,3-dihydro-1H-indol-1-yl}methyl)pyridine-2-carbonitrile], 0.042 µM.
As to `C[C@H](O)c1cccc2c1C(F)(F)C(=O)N2Cc1cncc(OC(F)F)c1` [Compound 189, 1-{[5-(difluoromethoxy)pyridin-3-yl]methyl}-3,3-difluoro-4[(1S)-1-hydroxyethyl)-1,3-dihydro-2H-indol-2-one], half-maximal inhibition (IC50) required 0.079 µM.
Still for that read-out and setting: for `Cn1c(CN2C(=O)C(F)(F)c3c(C(O)C(F)F)cccc32)nc2ccccc21` (single isomer, unassigned) [Compound 170, 4-(2,2-difluoro-1-hydroxyethyl)-3,3-difluoro-1-[(1-methyl-1H-benzimidazol-2-yl)methyl]-1,3-dihydro-2H-indol-2-one] the value was 0.11 µM.

The same experiment, now with this note: glycine uptake inhibition.
Molecule `C[C@@H](O)c1cccc2c1C(F)(F)C(=O)N2Cc1ccnc(C#N)c1` [Compound 38, 4-({3,3-difluoro-4-[(1R)-1-hydroxyethyl]-2-oxo-2,3-dihydro-1H-indol-1-yl}methyl)pyridine-2-carbonitrile] returned an IC50 of 5.3 µM.
Same read-out and setting: the figure for `O=C1N(Cc2ccnc(C(F)F)c2)c2cccc(C(O)C(F)F)c2C1(F)F` (single isomer, unassigned) [Compound 152, 4-(2,2-difluoro-1-hydroxyethyl)-1-{[2-(difluoromethyl)pyridin-4-yl]methyl}-3,3-difluoro-1,3-dihydro-2H-indol-2-one] is 0.088 µM; for `C[C@H](O)c1cccc2c1C(F)(F)C(=O)N2Cc1nc2ccccc2n(C)c1=O` [Compound 101, 3-({3,3-difluoro-4-[(1S)-1-hydroxyethyl]-2-oxo-2,3-dihydro-1H-indol-1-yl}methyl)-1-methylquinoxalin-2(1H)-one] it is 0.041 µM; for `C[C@@H](O)c1cccc2c1C(F)(F)C(=O)N2Cc1ccnc(F)c1` [Compound 43, 3,3-difluoro-1-[(2-fluoropyridin-4-yl)methyl]4-[(1R)-1-hydroxyethyl]-1,3-dihydro-2H-indol-2-one] it is 4.4 µM.
In turn, `O=C1N(Cc2ccnc(F)c2)c2cccc(C(O)C(F)F)c2C1(F)F` (stereo not drawn) [Compound 150, 4-(2,2-difluoro-1-hydroxyethyl)-3,3-difluoro-1-[(2-fluoropyridin-4-yl)methyl]-1,3-dihydro-2H-indol-2-one] gave a half-inhibitory concentration (IC50) of 0.31 µM.
Same read-out and setting: for `CC(O)c1cccc2c1C(F)(F)C(=O)N2Cc1ccnc(Cl)c1` (stereo not drawn) [Compound 27, 1-[(2-chloropyridin-4-yl)methyl]-3,3-difluoro-4-(1-hydroxyethyl)-1,3-dihydro-2H-indol-2-one] the value was 0.023 µM.
`O=C1N(Cc2cc(F)ccn2)c2cccc(C(O)C(F)F)c2C1(F)F` (single isomer, unassigned) [Compound 154, 4-(2,2-difluoro-1-hydroxyethyl)-3,3-difluoro-1-[(4-fluoropyridin-2-yl)methyl]-1,3-dihydro-2H-indol-2-one] came in with an IC50 of 0.26 µM.
On the same count and under the same terms, for `C[C@H](O)c1cccc2c1C(F)(F)C(=O)N2Cc1c2ccccc2nn1C` [Compound 93] the value was 0.054 µM.
Take `O=C1N(Cc2cncc(Cl)c2)c2ccc(F)c(C(O)C(F)F)c2C1(F)F` (single isomer, unassigned) [Compound 136]: the IC50 came to 1.7 µM.
The same measure, in the same setting: for `Cc1nc2ccccc2nc1CN1C(=O)C(F)(F)c2c([C@H](C)O)cccc21` [Compound 79, 3,3-difluoro-4-[(1S)-1-hydroxyethyl]-1-[(3-methylquinoxalin-2-yl)methyl]-1,3-dihydro-2H-indol-2-one] the value was 0.031 µM.
Molecule `C[C@H](O)c1cccc2c1C(F)(F)C(=O)N2Cc1nc2ccccc2n1C` [Compound 75, 3,3-difluoro-4-[(1S)-1-hydroxyethyl]-1-[(1-methyl-1H-benzimidazol-2-yl)methyl]-1,3-dihydro-2H-indol-2-one] yielded an IC50 of 0.034 µM.
The same measure, in the same setting: the figure for `O=C1N(Cc2cncc(Cl)c2)c2ccc(Cl)c([C@@H](O)C(F)(F)F)c2C1(F)F` [Compound 95, 5-chloro-1-[(5-chloropyridin-3-yl)methyl]-3,3-difluoro-4-[(1R)-2,2,2-trifluoro-1-hydroxyethyl]-1,3-dihydro-2H-indol-2-one] is 1 µM; for `C[C@H](O)c1cccc2c1C(F)(F)C(=O)N2Cc1ccc(F)nc1` [Compound 128, 3,3-difluoro-1-[(S-fluoropyridin-3-yl)methyl]-4-[(1S)-1-hydroxyethyl]-1,3-dihydro-2H-indol-2-one] it is 0.052 µM; for `C[C@H](O)c1cccc2c1C(F)(F)C(=O)N2Cc1ccncc1` [Compound 64, 3,3-difluoro-4-[(1S)-1-hydroxyethyl]-1-(pyridin-4-ylmethyl)-1,3-dihydro-2H-indol-2-one] it is 0.39 µM.
Still for that read-out and setting: for `O=C1N(Cc2cncc(Cl)c2)c2ccc(F)c(C(O)C(F)(F)F)c2C1(F)F` (single isomer, unassigned) [Compound 49, 1-[(5-chloropyridin-3-yl)methyl]-3,3,5-trifluoro-4-(2,2,2-trifluoro-1-hydroxyethyl)-1,3-dihydro-2H-indol-2-one] the value was 1.5 µM.

The experiment is the same for the next values; noted with them: table section whose head prints (μm).
In turn, `N#Cc1cc(CN2C(=O)C(F)(F)c3c(C(O)C(F)F)cccc32)cnc1F` (single isomer, unassigned) [Compound 272, 5-{[4-(2,2-difluoro-1-hydroxyethyl)-3,3-difluoro-2-oxo-2,3-dihydro-1H-indol-1-yl]methyl}-2-fluoropyridine-3-carbonitrile] yielded an IC50 of 0.027 µM.
Same read-out and setting: the figure for `O=C1N(Cc2cnccc2Cl)c2cccc(C(O)C(F)F)c2C1(F)F` (single isomer, unassigned) [Compound 260, 1-[(4-chloropyridin-3-yl)mettiyl]-4-(2,2-difluoro-1-hydroxyethyl)-3,3-difluoro-1,3-dihydro-2H-indol-2-one] is 1.5 µM.

One may read the IC50 as the point on the concentration scale where inhibition reaches its midpoint. A low value points to greater potency in that assay.
